Assay [1] concerns the target T1, RET(KD: 658-1114 G810R) (Homo sapiens, UniProt P07949, G810R).
T1 construct: 658-1114; expressed in transfected cells; host or cells: 293T.165 (293T cells, generated in-house)
T1 sequence (P07949 658-1114 G810R): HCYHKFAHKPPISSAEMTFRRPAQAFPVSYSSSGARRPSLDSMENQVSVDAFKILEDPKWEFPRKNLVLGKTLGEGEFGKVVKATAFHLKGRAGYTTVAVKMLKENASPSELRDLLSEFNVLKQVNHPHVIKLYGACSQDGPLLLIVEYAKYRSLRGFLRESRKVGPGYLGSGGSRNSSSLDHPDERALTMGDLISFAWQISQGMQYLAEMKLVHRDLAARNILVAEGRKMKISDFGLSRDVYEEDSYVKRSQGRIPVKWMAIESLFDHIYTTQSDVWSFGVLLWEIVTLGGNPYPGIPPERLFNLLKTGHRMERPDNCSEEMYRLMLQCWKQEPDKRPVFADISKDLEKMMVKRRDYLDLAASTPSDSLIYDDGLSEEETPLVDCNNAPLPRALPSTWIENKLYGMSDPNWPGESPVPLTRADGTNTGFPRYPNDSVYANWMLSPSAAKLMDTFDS
Description: HiBiT-Degradation, RET G810R degradation assay (Nano-Glo HiBiT Lytic), 293T.165 cells. It counts as cell-based. As to conditions: for Emax / DC50: 6.0 hours; for Emax: % remaining protein, read-out: 293T.165 RET(KD: 658-1114 G810R) 6.0 hours (Emax); for DC50: read-out: 293T.165 RET(KD: 658-1114 G810R) 6.0 hours (DC50). Put shortly: (§1)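 Cells were plated and dosed with an 11-point half-log series (highest 10 μM) in duplicate. After 6 hours they were lysed with HiBiT lytic detection reagent and luminescence measured. DC50 and percent remaining protein (Emax) came from the dose-response curves.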

Assay [2] deals with T2, RET (658-1114) (Homo sapiens, UniProt P07949).
T2 construct: 658-1114; expressed in transfected cells; host or cells: 293T.144 (293T cells, generated in-house)
T2 sequence (P07949 658-1114): T1 sequence (P07949 658-1114 G810R) with R153G
Description: HiBiT-Degradation, RET wild-type degradation assay (Nano-Glo HiBiT Lytic), 293T.144 cells. It counts as cell-based. As to conditions: for Emax / DC50: 6.0 hours; for Emax: read-out: 293T.144 RET (658-1114) 6.0 hours (Emax); for DC50: read-out: 293T.144 RET (658-1114) 6.0 hours (DC50). The method in brief:
as §1
For orientation: The HiBiT peptide binds its large partner to form an active luciferase.

Where [3] appears, read: half-maximal degradation concentration.

Substitutions are numbered along the chain they refer to. Read-outs that look alike come from different tables or passages of the source.

Consider `CCC1(C(=O)Nc2ccc(F)cc2)CCN(c2ccc(-c3nc(-c4cnn(C5CCN(C(=O)CC6(O)CCN(c7ccc(NC8CCC(=O)NC8=O)cc7Cl)CC6)CC5)c4)cn4ncc(C#N)c34)cn2)CC1` (stereo not shown) [Compound 100, 1-[5-[6-[1-[1-[2-[1-[2-chloro-4-[(2,6-dioxo-3-piperidyl)amino]phenyl]-4-hydroxy-4-piperidyl]acetyl]-4-piperidyl]pyrazol-4-yl]-3-cyano-pyrazolo[1,5-a]pyrazin-4-yl]-2-pyridyl]-4-ethyl-N-(4-fluorophenyl)piperidine-4-carboxamide], for which the “293T.165 RET(KD: 658-1114 G810R) 6.0 hours (IP) [nM]” value in assay [1] is “++++ (<50 nM = ++++)”. Also, the Emax in assay [1] and in assay [2] (% remaining protein) was below 30% throughout. The DC50 (usually the midpoint of the concentration-degradation curve) in assay [1] (setting [3]) is below 100 nM; in assay [2] (setting [3]) it was below 50 nM. In addition, the “293T.144 RET (658-1114) 6.0 hours (IP) [nM]” value (“293T.144 RET” below) in assay [2] is “++++ (<50 nM = ++++)”.
Turning to `CO[C@@H](C(=O)N1CCN(c2ccc(-c3nc(-c4cnn([C@H]5CC[C@@H](N6CCN(c7c(F)cc(NC8CCC(=O)NC8=O)cc7F)CC6)CC5)c4)cn4ncc(C#N)c34)cn2)CC1)c1ccccc1` (single isomer, unassigned) [Compound 201], in assay [1], the “293T.165 RET(KD: 658-1114 G810R) 6.0 hours (IP) [nM]” value is “++++ (<50 nM = ++++)”. The Emax in assay [1] and in assay [2] (% remaining protein) was below 30% in each case. The half-maximal degradation concentration (DC50) in assay [1] (setting [3]) and in assay [2] (setting [3]) was below 50 nM in each case. Further, the “293T.144 RET” value in assay [2] is on record as “++++ (<50 nM = ++++)”.
With `CCC1(C(=O)NC(C)C)CCN(c2ccc(-c3cc(-c4cnn(C5CCN(C(=O)CC6(O)CCN(c7ccc(NC8CCC(=O)NC8=O)cc7F)CC6)CC5)c4)cn4ncc(C#N)c34)cn2)CC1` (stereo not shown) [Compound 4, 1-[5-[3-cyano-6-[1-[1-[2-[1-[4-[(2,6-dioxo-3-piperidyl)amino]-2-fluoro-phenyl]-4-hydroxy-4-piperidyl]acetyl]-4-piperidyl]pyrazol-4-yl]pyrazolo[1,5-a]pyridin-4-yl]-2-pyridyl]-4-ethyl-N-isopropyl-piperidine-4-carboxamide], in assay [1], the Emax (in general, the maximal effect, on the per cent scale that the assay sets) is below 30%. In addition, in assay [1] (setting [3]), the DC50 is below 50 nM. For the same compound, in assay [1] (HiBiT-Degradation), the “293T.165 RET(KD: 658-1114 G810R) 6.0 hours (Emax)” value is listed as “++++ (< 30% = ++++)”, the “293T.165 RET(KD: 658-1114 G810R) 6.0 hours (IP) [nM]” value is “++++ (< 50 nM = ++++)” and the DC50 is below 50 nM. For the same compound, in assay [2] (HiBiT-Degradation), the “293T.144 RET” value is “++++ (< 50 nM = ++++)”, the DC50 is below 50 nM and the Emax was below 30%.
With `COc1cc(N2CCN([C@H]3CC[C@H](n4cc(-c5cn6ncc(C#N)c6c(-c6ccc(N7C[C@@H]8C[C@@](C)(NC(=O)c9ncccc9Cl)C[C@@H]8C7)nc6)n5)cn4)CC3)CC2)c(F)cc1NC1CCC(=O)NC1=O` (stereo partly drawn) [Compound 209, N-[(3aR,6aS)-2-[5-[3-cyano-6-[1-[4-[4-[4-[(2,6-dioxo-3-piperidyl)amino]-2-fluoro-5-methoxy-phenyl]piperazin-1-yl]cyclohexyl]pyrazol-4-yl]pyrazolo[1,5-a]pyrazin-4-yl]-2-pyridyl]-5-methyl-1,3,3a, 4,6,6a-hexahydrocyclopenta[c]pyrrol-5-yl]-3-chloro-pyridine-2-carboxamide], the “293T.165 RET(KD: 658-1114 G810R) 6.0 hours (IP) [nM]” value in assay [1] was “++++ (<50 nM = ++++)”. Further, the Emax in assay [1] and in assay [2] (% remaining protein) was below 30% throughout. Further, the DC50 in assay [1] (setting [3]) was below 100 nM; in assay [2] (setting [3]) it was below 50 nM. For the same compound, the “293T.144 RET” value in assay [2] was “++++ (<50 nM = ++++)”.
As to `CCC1(C(=O)NC(C)(C)C)CCN(c2ccc(-c3nc(-c4cnn([C@H]5CC[C@H](N6CCC(c7ccc(N[C@H]8CCC(=O)NC8=O)cc7F)CC6)CC5)c4)cn4ncc(C#N)c34)cn2)CC1` (single isomer, unassigned) [Compound 145], the “293T.165 RET(KD: 658-1114 G810R) 6.0 hours (IP) [nM]” value in assay [1] is listed as “++++ (<50 nM = ++++)”. Also, the Emax in assay [1] and in assay [2] (% remaining protein) was below 30% each time. Moreover, the DC50 in assay [1] (setting [3]) and in assay [2] (setting [3]) was below 50 nM in each case. Further, the “293T.144 RET” value in assay [2] is on record as “++++ (<50 nM = ++++)”.
`CCC1(C(=O)NC(C)(C)C)CCN(c2ccc(-c3nc(-c4cnn(C5CCN(C(=O)CC6(O)CCN(c7ccc(NC8CCC(=O)NC8=O)cc7F)CC6)CC5)c4)cn4ncc(C#N)c34)cn2)CC1` (stereo not shown) [Compound 103, N-tert-butyl-1-[5-[3-cyano-6-[1-[1-[2-[1-[4-[(2,6-dioxo-3-piperidyl)amino]-2-fluoro-phenyl]-4-hydroxy-4-piperidyl]acetyl]-4-piperidyl]pyrazol-4-yl]pyrazolo[1,5-a]pyrazin-4-yl]-2-pyridyl]-4-ethyl-piperidine-4-carboxamide]: in assay [1], the “293T.165 RET(KD: 658-1114 G810R) 6.0 hours (IP) [nM]” value is listed as “++++ (<50 nM = ++++)”. The Emax in assay [1] and in assay [2] (% remaining protein) was below 30% throughout. The DC50 in assay [1] (setting [3]) and in assay [2] (setting [3]) was below 50 nM in each case. Also, the “293T.144 RET” value in assay [2] is “++++ (<50 nM = ++++)”.
In the case of `CCC1(C(=O)NC2CCC2)CCN(c2ccc(-c3nc(-c4cnn([C@H]5C[C@](F)(CN6CCN(c7ccc(N[C@@H]8CCC(=O)NC8=O)cc7F)CC6)C5)c4)cn4ncc(C#N)c34)cn2)CC1` [Compound 187, 1-[5-[3-cyano-6-[1-[3-[[4-[4-[[(3R)-2,6-dioxo-3-piperidyl]amino]-2-fluoro-phenyl]piperazin-1-yl]methyl]-3-fluoro-cyclobutyl]pyrazol-4-yl]pyrazolo[1,5-a]pyrazin-4-yl]-2-pyridyl]-N-cyclobutyl-4-ethyl-piperidine-4-carboxamide], the “293T.165 RET(KD: 658-1114 G810R) 6.0 hours (IP) [nM]” value in assay [1] is listed as “++++ (<50 nM = ++++)”. Besides, the Emax in assay [1] and in assay [2] (% remaining protein) was below 30% each time. Further, the DC50 in assay [1] (setting [3]) and in assay [2] (setting [3]) was below 50 nM each time. The “293T.144 RET” value in assay [2] is reported as “++++ (<50 nM = ++++)”.
With `N#Cc1cnn2cc(-c3cnn([C@H]4CC[C@H](N5CCN(c6c(F)cc(N[C@@H]7CCC(=O)NC7=O)cc6F)CC5)CC4)c3)nc(-c3ccc(N4CCC5(CC4)OCc4cccnc45)nc3)c12` (racemic) [Compound 218, 6-[1-[4-[4-[2,6-difluoro-4-[[rac-(3R)-2,6-dioxo-3-piperidyl]amino]phenyl]piperazin-1-yl]cyclohexyl]pyrazol-4-yl]-4-(6-spiro[5H-furo[3,4-b]pyridine-7,4′-piperidine]-1′-yl-3-pyridyl)pyrazolo[1,5-a]pyrazine-3-carbonitrile], the “293T.165 RET(KD: 658-1114 G810R) 6.0 hours (IP) [nM]” value in assay [1] was “++++ (<50 nM = ++++)”. The Emax in assay [1] and in assay [2] (% remaining protein) was below 30% each time. In addition, the DC50 in assay [1] (setting [3]) and in assay [2] (setting [3]) was below 50 nM in each case. Also, the “293T.144 RET” value in assay [2] was “++++ (<50 nM = ++++)”.
With `CC(C)NC(=O)C1(C(C)C)CCN(c2ccc(-c3cc(-c4cnn(C5CCN(C(=O)CN6CCC(c7ccc(NC8CCC(=O)NC8=O)cc7F)CC6)CC5)c4)cn4ncc(C#N)c34)cn2)CC1` (stereo not shown) [Compound 56, 1-[5-[3-cyano-6-[1-[1-[2-[4-[4-[(2,6-dioxo-3-piperidyl)amino]-2-fluoro-phenyl]-1-piperidyl]acetyl]-4-piperidyl]pyrazol-4-yl]pyrazolo[1,5-a]pyridin-4-yl]-2-pyridyl]-N,4-diisopropyl-piperidine-4-carboxamide], the Emax in assay [1] is below 50%. In addition, the DC50 in assay [1] (setting [3]) was below 100 nM. Besides, in assay [1] (HiBiT-Degradation), the “293T.165 RET(KD: 658-1114 G810R) 6.0 hours (Emax)” value is “+++ (<50% = +++)”, the “293T.165 RET(KD: 658-1114 G810R) 6.0 hours (IP) [nM]” value is “++++ (< 50 nM = ++++)” and the DC50 was below 100 nM. In addition, in assay [2] (HiBiT-Degradation), the “293T.144 RET” value is listed as “++++ (< 50 nM = ++++)”, the DC50 is below 50 nM and the Emax is below 30%.

For the origin of these results see patent publication US12661410B2, “Compounds for targeted degradation of RET” (C4 Therapeutics, Inc., priority 2020, dated 2026).
